Structures are written as SMILES.

T1 sequence (P31749 whole entry): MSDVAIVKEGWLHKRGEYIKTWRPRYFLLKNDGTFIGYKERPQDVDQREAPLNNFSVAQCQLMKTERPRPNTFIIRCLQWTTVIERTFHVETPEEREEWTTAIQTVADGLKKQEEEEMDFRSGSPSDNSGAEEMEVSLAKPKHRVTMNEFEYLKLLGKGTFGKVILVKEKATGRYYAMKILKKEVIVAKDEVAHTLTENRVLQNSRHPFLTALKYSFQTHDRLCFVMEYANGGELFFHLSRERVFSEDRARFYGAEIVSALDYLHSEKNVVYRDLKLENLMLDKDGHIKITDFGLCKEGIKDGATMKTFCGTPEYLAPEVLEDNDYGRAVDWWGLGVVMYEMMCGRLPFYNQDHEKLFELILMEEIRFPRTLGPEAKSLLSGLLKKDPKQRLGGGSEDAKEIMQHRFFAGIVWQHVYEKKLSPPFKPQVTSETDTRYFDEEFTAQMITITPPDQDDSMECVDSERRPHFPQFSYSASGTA

The assay has as its target T1, full length AKT1 (Homo sapiens, UniProt P31749).
T1 construct: His tag (from vector pFastBacHTb) (N); made in house; host or cells: baculovirus; Sf9 / T. ni insect cells
In words: AKT enzyme assay (substrate phosphorylation, SPA). Type of assay: biochemical. The settings on record: in at least one experimental run; pIC50 = -log(IC50), IC50 in molar units; 10 nM activated AKT enzyme, 4 uM ATP; read-out: pIC50 against full length AKT1 (converted). An excerpt:
Cloning of Full-length Human (FL) AKT1:
Full-length human AKT1 gene was amplified by PCR from a plasmid containing myristylated-AKT1-ER (gift from Robert T. Abraham, Duke University under MTA, described in Klippel et al. in Molecular and Cellular Biology 1998 Volume 18 p. 5699) using the 5′ primer: SEQ.ID NO: 2, 5′ […] 3′ and the 3′ primer: SEQ.ID NO: 3, […] 3′. The 5′ primer included a BamHI site and the 3′ primer included an XhoI site for cloning purposes. The resultant PCR product was subcloned in pcDNA3 as a BamHI/XhoI fragment. A mutation in the sequence (TGC) coding for a Cysteine^25 was converted to the wild-type AKT1 sequence (CGC) coding for an Arginine^25 by site-directed mutagenesis using the QuikChange® Site Directed Mutagenesis Kit (Stratagene). […] For expression/purification purposes, AKT1 was isolated as a BamHI/XhoI fragment and cloned into the BamHI/XhoI sites of pFastbacHTb (Invitrogen).
Expression of FL Human AKT1:
Expression was done using the BAC-to-BAC Baculovirus Expression System from Invitrogen (catalog #10359-016). Briefly 1) the cDNA was transferred from the FastBac vector into bacmid DNA, 2) the bacmid DNA was isolated and used to transfect Sf9 insect cells, 3) the virus was produced in Sf9 cells, 4) T. ni cells were infected with this virus and sent for purification.
Purification of FL Human AKT1:
For the purification of full-length AKT1, 130 g sf9 cells (batch #41646WO2) were resuspended in lysis buffer (buffer A, 1 L, pH 7.5) containing 25 mM HEPES, 100 mM NaCl, and 20 mM imidazole. The cell lysis was carried out by Avestin (2 passes at 15K-20K psi). Cell debris was removed by centrifuging at 16K rpm for 1 hour and the supernatant was batch bound to 10 ml Nickel Sepharose HP beads at 4 C for over night. The beads were then transferred to column and the bound material was eluted with buffer B (25 mM HEPES, 100 mM NaCl, 300 mM imidazole, pH 7.5). AKT eluting fractions were pooled and diluted 3 fold using buffer C (25 mM HEPES, 5 mM DTT; pH 7.5). The sample was filtered and chromatographed over a 10 mL Q-HP column pre-equilibrated with buffer C at 2 mL/min.
The Q-HP column was washed with 3 column volume (CV) of buffer C, then step eluted with 5 CV 10% D, 5 CV 20% D, 5 CV 30% D, 5 CV 50% D and 5 CV of 100% D; where buffer D is 25 mM HEPES, 1000 mM NaCl, 5 mM DTT; pH 7.5. 5 mL fractions collected. AKT containing fractions were pooled and concentrated to 5 ml. The protein was next loaded to a 120 ml Superdex 75 sizing column that was pre-equilibrated with 25 mM HEPES, 200 mM NaCl, 5 mM DTT; pH 7.5. 2.5 mL fractions were collected.
AKT 1 eluting fractions were pooled, aliquoted (1 ml) and stored at −80 C. Mass spec and SDS-PAGE analysis were used to confirm purity and identity of the purified full-length AKT1.
Compounds of the present invention are tested for AKT 1, 2, and 3 protein serine kinase inhibitory activity in substrate phosphorylation assays. This assay examines the ability of small molecule organic compounds to inhibit the serine phosphorylation of a peptide substrate. The substrate phosphorylation assays use the catalytic domains of AKT 1, 2, or 3. AKT 1, 2 and 3 are also commercially available from Upstate USA, Inc. The method measures the ability of the isolated enzyme to catalyze the transfer of the gamma-phosphate from ATP onto the serine residue of a biotinylated synthetic peptide SEQ. ID NO: 5 (Biotin-ahx-ARKRERAYSFGHHA-amide). Substrate phosphorylation is detected by the following procedure: […]
Consider `Cn1nccc1-c1c(Cl)sc(NC(=O)C(CN)c2ccccc2)c1Cl` (centres unmarked) [Example 1, 3-amino-N-[3,5-dichloro-4-(1-methyl-1H-pyrazol-5-yl)-2-thienyl]-2-phenylpropanamide], for which the IC50 was 158 nM. With `Cn1ncc(Cl)c1-c1cc(NC(=O)[C@@H](CN)Cc2ccccc2)sc1Cl` [Example 5, (2R)-3-amino-N-[5-chloro-4-(4-chloro-1-methyl-1H-pyrazol-5-yl)-2-thienyl]-2-(phenylmethyl)propanamide] the figure was 10 nM. Turning to `Cn1ncc(Cl)c1-c1cc(NC(=O)[C@H](CN)Cc2ccc(F)c(F)c2)sc1Cl` [Example 7, (2S)-3-amino-N-[5-chloro-4-(4-chloro-1-methyl-1H-pyrazol-5-yl)-2-thienyl]-2-[(3,4-difluorophenyl)methyl]propanamide], the IC50 is 1.58 nM. For `Cn1ncc(Cl)c1-c1cc(NC(=O)[C@@H](CN)Cc2ccccc2F)sc1Cl` [Example 10, (2R)-3-amino-N-[5-chloro-4-(4-chloro-1-methyl-1H-pyrazol-5-yl)-2-thienyl]-2-[(2-fluorophenyl)methyl]propanamide], the IC50 was 5.01 nM. Turning to `Cn1ncc(Cl)c1-c1cc(NC(=O)[C@H](CN)Cc2cccc(F)c2)sc1Cl` [Example 13, (2S)-3-amino-N-[5-chloro-4-(4-chloro-1-methyl-1H-pyrazol-5-yl)-2-thienyl]-2-[(3-fluorophenyl)methyl]propanamide], the IC50 was 2.51 nM.

Values taken from patent publication US8592475B2, “Inhibitors of Akt activity” (GlaxoSmithKline LLC, priority 2008, dated 2013).
